US20230145406A1, “DIVALENT METAL-CONTAINING BIOMATERIALS AND METHODS OF USE” (University of Oregon, priority 2021, published 2023)

Experiment: Precipitation in filtered concentrated cupric dilactate solution
Type: physicochemical
Conditions: cupric dilactate in water, sonicated, overnight 37° C., 0.45 μm filtered; over 3 weeks
Description: Increased concentrations of cupric dilactate were prepared for use in polymers to achieve higher loading. Excess of cupric dilactate in water (5 g in 10 ml) was prepared and sonicated for 30-120 minutes (15 minutes each x 2-8 times with 10 minutes break between each sonication session) and left overnight at 37° C. The solution obtained was cooled to room temperature and the green liquid containing cupric dilactate was separated from the undissolved cupric dilactate by aspiration and filtering through 0.45 μm syringe filter. […] This solution can be used for loading plugs, for example as described in Examples 1-3.

## CC(O)C(=O)[O-].CC(O)C(=O)[O-].[Cu+2] (stereo not shown) [cupric dilactate]
  precipitate in the filtrate: No precipitate was observed
